We go through 17 compounds from US20240174634A1, “Aldehyde Dehydrogenase Inhibitors and Their Therapeutic Use” (priority 2020, published 2024).

One experiment concerns the target T1, ALDH1A1 (Homo sapiens, UniProt P00352).
T1 construct: His-tag; made in house; host or cells: E. coli Rosetta (DE3)
T1 sequence (P00352 1-501): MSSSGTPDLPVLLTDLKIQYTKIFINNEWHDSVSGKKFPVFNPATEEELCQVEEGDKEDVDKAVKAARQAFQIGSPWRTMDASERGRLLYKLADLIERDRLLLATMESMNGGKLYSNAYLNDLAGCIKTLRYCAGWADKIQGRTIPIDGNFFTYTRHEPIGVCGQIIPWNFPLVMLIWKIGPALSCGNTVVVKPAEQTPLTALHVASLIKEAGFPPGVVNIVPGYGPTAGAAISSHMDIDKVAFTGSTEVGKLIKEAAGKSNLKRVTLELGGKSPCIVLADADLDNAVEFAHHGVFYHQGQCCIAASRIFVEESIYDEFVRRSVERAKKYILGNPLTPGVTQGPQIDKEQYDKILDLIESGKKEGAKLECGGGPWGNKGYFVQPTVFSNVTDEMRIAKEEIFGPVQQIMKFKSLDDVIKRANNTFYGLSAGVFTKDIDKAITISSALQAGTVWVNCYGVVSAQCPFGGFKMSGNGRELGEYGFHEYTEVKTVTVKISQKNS
Nature of the experiment: Selectivity biochemical assay, NAD(P)H-Glo Detection System. An excerpt:
(§1) Cloning: Open reading frames corresponding to the protein coding sequences of full length human ALDH1A1 (Uniprot ID P00352), ALDH1A2 (094788) and ALDH1A3 (P47895) were polymerase chain reaction (PCR) amplified from human cDNA and inserted into the multi-cloning sites of the commercially available (Novagen) E. coli expression vectors pET47b (ALDH1A1, EcoRI restriction site; ALDH1A2, BamHI and EcoRI sites) or pET28a (ALDH1A3, NdeI and BamHI sites), using standard molecular genetic techniques. Recombinant DNA products were sequence verified prior to use in expression studies.
(§2) Expression: Expression constructs were transformed into the E. coli strain Rosetta (DE3) (Merck) and individual colonies used to inoculate 10 mL lysogen broth (LB) medium supplemented with kanamycin and chloramphenicol at 50 μg/mL and 34 μg/mL, respectively. Cultures were grown to saturation overnight at 37° C., prior to being used to sub-inoculate fresh 1 L LB medium cultures (plus antibiotics, as before). 1 L cultures were grown at 37° C., 200 rpm, throughout the day until the optical density at 600 nm (OD600) reached ˜0.8, at which point growth temperature was reduced to 18° C. and 1 mM isopropyl β-d-1-thiogalacto pyranoside (IPTG) added to induce protein expression.
(§3) Cultures were left overnight (at least 16 h) under these conditions and the following day harvested by centrifugation (4000 G, 10 minutes). Culture supernatant was discarded and cell pellets stored at −80° C. until further processing.
(§4) Purification: Cell pellets were thawed on ice, re-suspended in Ni Affinity Buffer A (20 mM HEPES pH 7.5, 300 mM NaCl, 20 mM imidazole, 1 mM tris(2-carboxyethyl)phosphine (TCEP)) with protease inhibitors (cOmplete Ultra protease inhibitor, Roche), and lysed by sonication. Lysates were clarified by centrifugation at 18,000 G, 4° C., for 40 minutes, and loaded directly onto a pre-equilibrated (Buffer A) 5 mL HisTrap Fast Flow column (GE Healthcare) by way of an AKTA Fast Protein Liquid Chromatography (FPLC) system. The column was sequentially treated with 6 column volumes (CV) 100% Buffer A, 8 CV of 90% Buffer A:10% Buffer B (20 mM 4-(2-hydroxyethyl)-1-piperazineethanesulfonic acid (HEPES) pH 7.5, 300 mM NaCl, 500 mM imidazole, 1 mM TCEP) and finally a linear gradient from 10-70% Buffer B over 8 CV to elute recombinant His-tagged protein. Relevant fractions (as measured by 280 nm absorbance) collected during elution were pooled and subjected to further purification by size exclusion chromatography (Superdex 200 26/600, GE Healthcare, running buffer 20 mM 2-(carbamoylmethylamino)ethanesulfonic acid (ACES) pH 7.5, 1 mM TCEP). Relevant fractions from this step were pooled, aliquoted, and stored at −80° C. until required for compound profiling assays.
(§5) Materials: ALDH2 was purchased from Abnova. Tris(hydroxymethyl)aminomethane (Tris) was purchased from MP Biomedicals. TCEP, ethylenediaminetetraacetic acid (EDTA), propionaldehyde, DMSO and Tween-20 were purchased from Sigma. Nicotinamide adenine dinucleotide (NAD) was obtained from Abcam. The NAD(P)H-Glo™ Detection System was purchased from Promega. White, non-binding surface, 384 well plates were supplied by Corning (#3574).
(§6) Method: Inhibition of ALDH1A3 was assessed using the NAD(P)H-Glo™ Detection System (Cat. No. G9062) from Promega. This assay detects the production of NADH from NAD by ALDH1A3 via the coupled enzymatic conversion of a proluciferin reductase substrate to generate a luminescent signal. Inhibition of ALDH1A3 by small molecule inhibitors will result in reduction or abrogation of luminescence signal increase above background. Inhibition of ALDH1A1, ALDH1A2 and ALDH2 (selectivity assays) were assessed using the same assay.
(§7) Compounds were dosed into Corning 384 well assay plates using an Echo acoustic dispenser to give 10 point curves in a 3-fold dilution series. Compounds were dispensed from a 20 mM DMSO stock and initially screened at a top concentration of 20 μM (ALDH1A3) or 250 μM (ALDH1A1, ALDH1A2 & ALDH2). […]

A further experiment has as its target T2, ALDH1A3 (Homo sapiens, UniProt P47895).
T2 sequence (P47895 1-512): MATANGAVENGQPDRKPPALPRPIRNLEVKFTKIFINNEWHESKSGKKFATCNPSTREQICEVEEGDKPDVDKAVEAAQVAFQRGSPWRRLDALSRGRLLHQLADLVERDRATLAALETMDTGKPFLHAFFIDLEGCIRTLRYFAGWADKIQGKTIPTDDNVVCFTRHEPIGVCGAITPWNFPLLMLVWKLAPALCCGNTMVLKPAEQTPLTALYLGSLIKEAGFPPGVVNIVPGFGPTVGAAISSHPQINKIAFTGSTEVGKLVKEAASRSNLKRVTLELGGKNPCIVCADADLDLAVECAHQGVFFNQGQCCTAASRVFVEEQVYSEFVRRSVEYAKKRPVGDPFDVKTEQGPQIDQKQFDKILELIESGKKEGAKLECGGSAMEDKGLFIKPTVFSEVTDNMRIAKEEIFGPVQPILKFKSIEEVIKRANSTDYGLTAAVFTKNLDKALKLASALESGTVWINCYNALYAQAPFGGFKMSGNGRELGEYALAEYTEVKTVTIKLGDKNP
The experiment is described as follows: Primary biochemical assay, NAD(P)H-Glo Detection System. To be noted: 30 min pre-incubation, propionaldehyde and NAD at Km. Set-up: His-tag; made in house; host or cells: E. coli Rosetta (DE3).
Text: as §1, §2, §3, §4, §5, §6, §7

Each structure is given as a SMILES string.

In the case of `Cn1cc(C2CCCN2CCOc2ccc3c(c2)OCC(=O)N3)cn1` (stereo not shown) [ALDHI-2024, 7-[2-[2-(1-methylpyrazol-4-yl)pyrrolidin-1-yl]ethoxy]-4H-1,4-benzoxazin-3-one], the values for the IC50 at ALDH1A1 and against ALDH1A3 were not below 100 µM and 1 to 10 µM, respectively.
Take `CN(CCOc1ccc2c(c1)CCC(=O)N2)Cc1ccccn1` [ALDHI-3012, 6-[2-[methyl(2-pyridylmethyl)amino]ethoxy]-3,4-dihydro-1H-quinolin-2-one]: the IC50 on ALDH1A1 is not below 100 µM; at ALDH1A3, 1 to 10 µM.
The corresponding values for `Cc1onc(-c2cccc(F)c2)c1C(=O)Nc1ccc2c(c1)CCC(=O)N2` [ALDHI-1009, 3-(3-fluorophenyl)-5-methyl-N-(2-oxo-3,4-dihydro-1H-quinolin-6-yl)isoxazole-4-carboxamide] are not below 100 µM and 1 to 10 µM.
The corresponding values for `Cn1cc(CN(CCO)CCOc2ccc3c(c2)CCC(=O)N3)cn1` [ALDHI-3011, 6-[2-[2-hydroxyethyl-[(1-methylpyrazol-4-yl)methyl]amino]ethoxy]-3,4-dihydro-1H-quinolin-2-one] are 10 to 100 µM and 1 to 10 µM.
The corresponding values for `Cn1cccc1C1CCCN1CCOc1ccc2c(c1)CCC(=O)N2` (stereo not shown) [ALDHI-2017, 6-[2-[2-(1-methylpyrrol-2-yl)pyrrolidin-1-yl]ethoxy]-3,4-dihydro-1H-quinolin-2-one] are not below 100 µM and 1 to 10 µM.
Regarding `CN(CCOc1ccc2c(c1)CCC(=O)N2)Cc1ccncc1` [ALDHI-3014, 6-[2-[methyl(4-pyridylmethyl)amino]ethoxy]-3,4-dihydro-1H-quinolin-2-one], the IC50 is not below 100 µM on ALDH1A1 and 1 to 10 µM on ALDH1A3.
On to `O=C1CCc2cc(OCCN3CCNCC3c3ccccc3)ccc2N1` (stereo not shown) [ALDHI-2036, 6-[2-(2-phenylpiperazin-1-yl)ethoxy]-3,4-dihydro-1H-quinolin-2-one], for which the IC50 against ALDH1A1 was not below 100 µM; at ALDH1A3 it was 1 to 10 µM.
In the case of `O=C1CCc2cc(NC(=O)c3scnc3-c3cccc(F)c3)c(F)cc2N1` [ALDHI-1025, N-(7-fluoro-2-oxo-3,4-dihydro-1H-quinolin-6-yl)-4-(3-fluorophenyl)thiazole-5-carboxamide], the IC50 against ALDH1A1 was not below 100 µM; on ALDH1A3, less than 0.1 µM.
The corresponding values for `CN(CCOc1ccc2c(c1)CCC(=O)N2)Cc1cnn(C)c1` [ALDHI-3009, 6-[2-[methyl-[(1-methylpyrazol-4-yl)methyl]amino]ethoxy]-3,4-dihydro-1H-quinolin-2-one] are 10 to 100 µM and 1 to 10 µM.
In the case of `CC(C)C1Oc2cc(OCCN3CCCC3c3cccc(F)c3)ccc2NC1=O` (stereo not shown) [ALDHI-2049, 7-[2-[2-(3-fluorophenyl)pyrrolidin-1-yl]ethoxy]-2-isopropyl-4H-1,4-benzoxazin-3-one], the IC50 at ALDH1A1 was not below 100 µM; on ALDH1A3, 1 to 10 µM.
Turning to `CS(=O)(=O)N1CCN(CCOc2ccc3c(c2)CCC(=O)N3)C(c2ccccc2)C1` (stereo not shown) [ALDHI-2046, 6-[2-(4-methylsulfonyl-2-phenyl-piperazin-1-yl)ethoxy]-3,4-dihydro-1H-quinolin-2-one], the figures for the IC50 against ALDH1A1 and on ALDH1A3 were 10 to 100 µM and 1 to 10 µM, respectively.
Regarding `O=C1COc2cc(OCCN3CCCC3c3ccccn3)ccc2N1` (stereo not shown) [ALDHI-2025, 7-[2-[2-(2-pyridyl)pyrrolidin-1-yl]ethoxy]-4H-1,4-benzoxazin-3-one], the IC50 is not below 100 µM against ALDH1A1 and 1 to 10 µM on ALDH1A3.
In the case of `CCCC1Oc2cc(OCCN3CCCC3c3cccc(F)c3)ccc2NC1=O` (stereo not shown) [ALDHI-2047, 7-[2-[2-(3-fluorophenyl)pyrrolidin-1-yl]ethoxy]-2-propyl-4H-1,4-benzoxazin-3-one], the IC50 at ALDH1A1 is not below 100 µM; at ALDH1A3 it was 1 to 10 µM.
On the same counts, the results for `Cc1nn(C)cc1C1CCCN1CCOc1ccc2c(c1)CCC(=O)N2` (stereo not shown) [ALDHI-2015, 6-[2-[2-(1,3-dimethylpyrazol-4-yl)pyrrolidin-1-yl]ethoxy]-3,4-dihydro-1H-quinolin-2-one] are not below 100 µM and 1 to 10 µM.
The corresponding values for `O=C1CCc2cc(NC(=O)c3scnc3-c3cccc(C(F)(F)F)c3)ccc2N1` [ALDHI-1015, N-(2-oxo-3,4-dihydro-1H-quinolin-6-yl)-4-[3-(trifluoromethyl)phenyl]thiazole-5-carboxamide] are not below 100 µM and 1 to 10 µM.
Take `O=C1CCc2cc(NC(=O)c3scnc3-c3cc(F)cc(F)c3)ccc2N1` [ALDHI-1024, 4-(3,5-difluorophenyl)-N-(2-oxo-3,4-dihydro-1H-quinolin-6-yl)thiazole-5-carboxamide]: the IC50 against ALDH1A1 was not below 100 µM; against ALDH1A3, less than 0.1 µM.
The corresponding values for `Cc1nc(-c2cccc(F)c2)c(C(=O)Nc2ccc3c(c2)CCC(=O)N3)s1` [ALDHI-1026, 4-(3-fluorophenyl)-2-methyl-N-(2-oxo-3,4-dihydro-1H-quinolin-6-yl)thiazole-5-carboxamide] are not below 100 µM and less than 0.1 µM.

One may read the IC50 as the concentration at which inhibition is half-maximal. A high value points to lower potency.
